In PubChem BioAssay AID2060602 (Molecular Pharmacology Branch, DTP, NCI, 2025):
pIC50: −log10 of the molar value. Several values for one entry are separate records, joined by “and”; a condition that tells them apart may be missing. Identical values can stand only once.

Tested on: 648629-189-R-J1-PDC complex spheroids viability
Experiment: Anticancer human tumor 648629-189-R-J1-PDC patient-derived bladder carcinoma cell line growth inhibition [CLK]
Settings: for viability, T/C: stronger effect = lower value
Excerpt: A high-throughput screen of multi-cell type tumor spheroids was designed to identify active combinations of […] and targeted small molecules. Complex spheroids include a stromal component modeled by human endothelial cells (HUVEC) and fibroblasts modeled by human mesenchymal stem cells (MSCs). The concentration ranges selected for each drug and investigational agent were based upon clinically achievable concentrations if the clinical Cmax of the agent was known.
Compounds. The drugs and investigational agents: cirtuvivint (SM08502; NSC835563), CC-671 (NSC850746), vemurafenib (NSC761431), tapotoclax (NSC804041), sotorasib (NSC818433), adagrasib (NSC831453), MRTX-1133 (NSC836407), BAY2416964 (NSC825713), copanlisib (NSC816437), inavolisib (NSC800729), abemaciclib (NSC768073), osimertinib (NSC779217), entinostat (NSC756642), eltanexor (KPT-8602, NSC794443), venetoclax (NSC766270), ceralasertib (NSC777638), bortezomib (NSC756655), olaparib (NSC753686), talazoparib (NSC767125), alisertib (NSC759677), peposertib (NSC802822), gemcitabine (NSC613327), 5-fluorouracil (NSC19893), SN-38 (NSC673596), oxaliplatin (NSC266046), paclitaxel (NSC125973), and doxorubicin (NSC123127), were obtained from the National Cancer Institute (NCI) Developmental Therapeutics Program Chemical Repository. The FDA-approved anticancer drug set is available from the Developmental Therapeutics Program at https://dtp.cancer.gov/organization/dscb/obtaining/available plates.htm. […] The stock solutions were prepared in dimethyl sulfoxide (DMSO, Sigma-Aldrich, St. Louis, MO, cat. D2650), except for the platinum complexes which were prepared in saline (Quality Biological, Gaithersburg, MD, cat. 114-055-101), at 800-fold the tested concentration and stored at -70 degrees C prior to their use. All drugs and investigational agents were tested over a range starting from a high concentration at or near the clinical Cmax and decreasing in half-log increments. If the clinical Cmax for an agent had not been determined, the highest concentration tested was 10 microM.
Cell Culture. All cells were maintained in an incubator at 37 degrees C and 5% CO2 with 95% humidity. The PDC lines were cultured according to standard operating procedures established by the NCI PDMR. Briefly, all PDCs were thawed and cultured in Matrigel-coated flasks prepared with a working solution of 1X Ham's F-12 nutrient mix, without supplementation (Invitrogen, Waltham, MA, cat. 11765054), 100 U/mL penicillin-streptomycin (Invitrogen, cat. 15140122), and 2.5% Matrigel (Corning Inc., Corning, NY, cat. 354248) for the first three passages. The 947758-054-R-J2-PDC line was cultured in 6B/Colon 1A media, which includes advanced DMEM/F-12 (Thermo Fisher Scientific, cat. 12634028), 10 mM HEPES (Thermo Fisher Scientific, cat. 15630080), 1X GlutaMAX supplement (Thermo Fisher Scientific, cat. 35050061), 0.1 mg/mL primocin (InvivoGen, cat. ant-pm-2), 10% defined fetal bovine serum, heat inactivated (HyClone Laboratories Inc., cat. SH30070.03HI), 1.25 mM N-Acetyl-L-cysteine (Sigma-Aldrich, cat. A9165), 10 mM nicotinamide (Sigma-Aldrich, cat. N0636), 1X B-27 supplement (Thermo Fisher Scientific, cat. 17504044), 1X N-2 supplement (Thermo Fisher Scientific, cat. 17502048), and 10 microM Y-27632 dihydrochloride (Tocris Bioscience, cat. 1254). The 876862-298-R-J1-PDC was cultured in 6E media, which includes all 6B/Colon 1A media components plus 50% L-WRN conditioned media (ATCC, cat. CRL-3276), 50 ng/mL recombinant human EGF recombinant protein (hEGF; Thermo Fisher Scientific, cat. PHG0311), 10 ng/mL recombinant human fibroblast growth factor 10 (hGFG-10; PeproTech, cat. 100-26), 1 ng/mL recombinant human fibroblast growth factor 2 (hFGF-2; PeproTech, cat. 100-18B), and 1 µM prostaglandin E2 (PGE2; Tocris, cat. 2296). The 227483-062-R1-J1-PDC line was cultured in Panc media, containing all 6E components except hFGF-2, with the addition of 500 nM SB-431542 (Selleckchem, cat. S1067) and 10 nM gastrin (Tocris, cat. 3006). […]

[1] = curve of first compound, second compound 0.0316 µM
[2] = curve of first compound, second compound 0.1 µM
[3] = curve of first compound, second compound 0.316 µM
[4] = curve of first compound, second compound 1 µM
[5] = curve of first compound, second compound 3.16 µM
[6] = curve of first compound, second compound 10 µM
[7] = second compound 0.0316 µM, first compound 0.0316 µM
[8] = second compound 0.0316 µM, first compound 0.1 µM
[9] = second compound 0.0316 µM, first compound 0.316 µM
[10] = second compound 0.0316 µM, first compound 1 µM
[11] = second compound 0.0316 µM, first compound 3.16 µM
[12] = second compound 0.0316 µM, first compound 10 µM
[13] = second compound 0.1 µM, first compound 0.0316 µM
[14] = second compound 0.1 µM, first compound 0.1 µM
[15] = second compound 0.1 µM, first compound 0.316 µM
[16] = second compound 0.1 µM, first compound 1 µM
[17] = second compound 0.1 µM, first compound 3.16 µM
[18] = second compound 0.1 µM, first compound 10 µM
[19] = second compound 0.316 µM, first compound 0.0316 µM
[20] = second compound 0.316 µM, first compound 0.1 µM
[21] = second compound 0.316 µM, first compound 0.316 µM
[22] = second compound 0.316 µM, first compound 1 µM
[23] = second compound 0.316 µM, first compound 3.16 µM
[24] = second compound 0.316 µM, first compound 10 µM
[25] = second compound 1 µM, first compound 0.0316 µM
[26] = second compound 1 µM, first compound 0.1 µM
[27] = second compound 1 µM, first compound 0.316 µM
[28] = second compound 1 µM, first compound 1 µM
[29] = second compound 1 µM, first compound 3.16 µM
[30] = second compound 1 µM, first compound 10 µM
[31] = second compound 3.16 µM, first compound 0.0316 µM
[32] = second compound 3.16 µM, first compound 0.1 µM
[33] = second compound 3.16 µM, first compound 0.316 µM
[34] = second compound 3.16 µM, first compound 1 µM
[35] = second compound 3.16 µM, first compound 3.16 µM
[36] = second compound 3.16 µM, first compound 10 µM
[37] = second compound 10 µM, first compound 0.0316 µM
[38] = second compound 10 µM, first compound 0.1 µM
[39] = second compound 10 µM, first compound 0.316 µM
[40] = second compound 10 µM, first compound 1 µM
[41] = second compound 10 µM, first compound 3.16 µM
[42] = second compound 10 µM, first compound 10 µM
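Wherever viability, T/C is given: drug exposure lasted seven days before viability readout; 100% = DMSO vehicle control wells.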

`O=C(c1cc(Cc2n[nH]c(=O)c3ccccc23)ccc1F)N1CCN(C(=O)C2CC2)CC1` was tested, and the viability, T/C (compound 0.0316 µM) was 109% and 101%, the viability, T/C (compound 0.1 µM) was 90.8% and 97.7% and the viability, T/C (compound 0.316 µM) was 92% and 108%. For the same compound, the viability, T/C (compound 1 µM) was 79.5% and 103%, the viability, T/C (compound 3.16 µM) was 75.7% and 84.3% and the viability, T/C (compound 10 µM) was 57.9% and 71.5%. The pIC50 (curve of compound) was less than 5.00.

With `CCCS(=O)(=O)Nc1ccc(F)c(C(=O)c2c[nH]c3ncc(-c4ccc(Cl)cc4)cc23)c1F` + CNC(=O)c1ccc(Nc2nc(OC3CCCC3)c3c(-c4ccc5nc(C)oc5c4)c[nH]c3n2)c(OC)c1 the pIC50 [1] was 5.20, the pIC50 [2] was 5.23 and the pIC50 [3] was greater than 7.50. The pIC50 [4] was greater than 7.50, the pIC50 [5] was greater than 7.50 and the pIC50 [6] was greater than 7.50. It also gave a viability, T/C [7] of 117%, a viability, T/C [8] of 104% and a viability, T/C [9] of 111%. The viability, T/C [10] was 89.9%, the viability, T/C [11] was 98.7% and the viability, T/C [12] was 18.2%. It also gave a viability, T/C [13] of 75.2%, a viability, T/C [14] of 83.9% and a viability, T/C [15] of 94.8%. The viability, T/C [16] was 94.5%, the viability, T/C [17] was 105% and the viability, T/C [18] was 15.8%. It also gave a viability, T/C [19] of 27.9%, a viability, T/C [20] of 24.1% and a viability, T/C [21] of 33.6%. It also gave a viability, T/C [22] of 31.2%, a viability, T/C [23] of 27.6% and a viability, T/C [24] of 7.72%. It also gave a viability, T/C [25] of 19.7%, a viability, T/C [26] of 20.6% and a viability, T/C [27] of 23.2%. It also gave a viability, T/C [28] of 17.9%, a viability, T/C [29] of 21% and a viability, T/C [30] of 9.33%. The viability, T/C [31] was 16.6%, the viability, T/C [32] was 21.2% and the viability, T/C [33] was 19.1%. The viability, T/C [34] was 20.2%, the viability, T/C [35] was 20.9% and the viability, T/C [36] was 11.3%. The viability, T/C [37] was 20.6%, the viability, T/C [38] was 21% and the viability, T/C [39] was 19.1%. The viability, T/C [40] was 18.9%, the viability, T/C [41] was 18.7% and the viability, T/C [42] was 8.45%.

`CC(Nc1ccc2c(c1)OCCn1cc(N3C(=O)OCC3C(F)F)nc1-2)C(N)=O` (stereo not drawn) + CNC(=O)c1ccc(Nc2nc(OC3CCCC3)c3c(-c4ccc5nc(C)oc5c4)c[nH]c3n2)c(OC)c1 gave a pIC50 [1] of 5.23, a pIC50 [2] of 5.02 and a pIC50 [3] greater than 7.50. It also gave a pIC50 [4] greater than 7.50, a pIC50 [5] greater than 7.50 and a pIC50 [6] greater than 7.50. It also gave a viability, T/C [7] of 114%, a viability, T/C [8] of 106% and a viability, T/C [9] of 89.4%. The viability, T/C [10] was 67.8%, the viability, T/C [11] was 64.9% and the viability, T/C [12] was 40.6%. The viability, T/C [13] was 95.7%, the viability, T/C [14] was 89.9% and the viability, T/C [15] was 84.1%. The viability, T/C [16] was 77.3%, the viability, T/C [17] was 62.2% and the viability, T/C [18] was 49.6%. The viability, T/C [19] was 27.7%, the viability, T/C [20] was 37.6% and the viability, T/C [21] was 33.7%. The viability, T/C [22] was 34%, the viability, T/C [23] was 31.2% and the viability, T/C [24] was 27.1%. It also gave a viability, T/C [25] of 17%, a viability, T/C [26] of 22.3% and a viability, T/C [27] of 18.5%. The viability, T/C [28] was 17.5%, the viability, T/C [29] was 16.6% and the viability, T/C [30] was 14.8%. The viability, T/C [31] was 16.7%, the viability, T/C [32] was 20.3% and the viability, T/C [33] was 16.1%. The viability, T/C [34] was 17.8%, the viability, T/C [35] was 12.9% and the viability, T/C [36] was 15.9%. The viability, T/C [37] was 21.5%, the viability, T/C [38] was 19.8% and the viability, T/C [39] was 17.2%. It also gave a viability, T/C [40] of 15%, a viability, T/C [41] of 21.8% and a viability, T/C [42] of 11.5%.

`CC1(C)CCC(CN2CCN(c3ccc(C(=O)NS(=O)(=O)c4ccc(NCC5CCOCC5)c([N+](=O)[O-])c4)c(Oc4cnc5[nH]ccc5c4)c3)CC2)=C(c2ccc(Cl)cc2)C1` + CNC(=O)c1ccc(Nc2nc(OC3CCCC3)c3c(-c4ccc5nc(C)oc5c4)c[nH]c3n2)c(OC)c1 was tested, and the pIC50 [1] was less than 5.00, the pIC50 [2] was less than 5.00 and the pIC50 [3] was greater than 7.50. The pIC50 [4] was greater than 7.50, the pIC50 [5] was greater than 7.50 and the pIC50 [6] was greater than 7.50. It also gave a viability, T/C [7] of 100%, a viability, T/C [8] of 114% and a viability, T/C [9] of 108%. For the same compound, the viability, T/C [10] was 106%, the viability, T/C [11] was 85.3% and the viability, T/C [12] was 103%. For the same compound, the viability, T/C [13] was 86.5%, the viability, T/C [14] was 94% and the viability, T/C [15] was 93.4%. It also gave a viability, T/C [16] of 79.2%, a viability, T/C [17] of 71% and a viability, T/C [18] of 100%. It also gave a viability, T/C [19] of 26.3%, a viability, T/C [20] of 30.1% and a viability, T/C [21] of 23.4%. It also gave a viability, T/C [22] of 25.6%, a viability, T/C [23] of 29.4% and a viability, T/C [24] of 19.9%. It also gave a viability, T/C [25] of 20.7%, a viability, T/C [26] of 24.1% and a viability, T/C [27] of 20.2%. For the same compound, the viability, T/C [28] was 23.4%, the viability, T/C [29] was 26.5% and the viability, T/C [30] was 21.3%. For the same compound, the viability, T/C [31] was 23.1%, the viability, T/C [32] was 23.3% and the viability, T/C [33] was 23.9%. The viability, T/C [34] was 20.2%, the viability, T/C [35] was 21.6% and the viability, T/C [36] was 17.3%. For the same compound, the viability, T/C [37] was 20.9%, the viability, T/C [38] was 20.7% and the viability, T/C [39] was 19.9%. The viability, T/C [40] was 22%, the viability, T/C [41] was 23.6% and the viability, T/C [42] was 20.4%.
